Results published in patent US20240117431A1, “STEM-CELL BASED BIOMARKER DISCOVERY” (THE REGENTS OF THE UNIVERSITY OF CALIFORNIA, priority 2020, published 2024).
Entries after “also recorded” stand apart in the source; their conditions may differ.

What was measured:
[1] = target: T1, uracil monophosphate synthetase (UMPS) overexpressed in HEK cells (Homo sapiens, UniProt P11172); test: RNA incorporation with overexpression of UMPS, dot blot; format: cell-based; settings: 1 mM, 24 hours, FIG. 12
T1 construct: expressed in transfected cells; host or cells: HEK cells
T1 sequence (P11172 1-480): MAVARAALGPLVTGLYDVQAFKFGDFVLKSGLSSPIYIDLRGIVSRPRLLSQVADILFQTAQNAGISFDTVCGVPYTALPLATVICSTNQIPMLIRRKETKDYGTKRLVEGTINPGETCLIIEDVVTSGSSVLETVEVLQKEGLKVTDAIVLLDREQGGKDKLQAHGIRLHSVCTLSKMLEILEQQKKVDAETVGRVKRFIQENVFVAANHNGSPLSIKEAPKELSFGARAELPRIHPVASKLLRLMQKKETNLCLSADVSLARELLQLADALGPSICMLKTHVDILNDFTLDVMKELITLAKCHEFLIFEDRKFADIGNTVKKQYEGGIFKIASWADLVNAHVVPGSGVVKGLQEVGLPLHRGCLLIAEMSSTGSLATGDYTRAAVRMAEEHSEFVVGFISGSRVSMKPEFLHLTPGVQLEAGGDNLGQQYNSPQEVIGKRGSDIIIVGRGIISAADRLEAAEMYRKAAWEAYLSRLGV
Procedure: Analogs were incubated for 24 hours at 1 mM concentration in HEK cells. RNA was extracted and biotinylated using MTSEA-Biotin, followed by dot-blot analysis. Strep-HRP=Streptavidin conjugated Horseradish peroxidase. MeBI=methylene blue staining serving as loading control.

[2] = tested on: mutants TgUPRT; test: Phosphoribosyltransferase activity with recombinant TgUPRT mutants; format: biochemical, Toxoplasma gondii; settings: five recombinant TgUPRT mutants, FIG. 9A
Procedure: Enzyme activity assay: The standard activity assay was performed by incubating 10 μL of free extract or 0.5 μg of pure His-tag enzyme with 1 mM Phosphoribosyl pyrophosphate (PRPP), 1 mM uracil, 5 mM MgCl2 in 50 mM PBS buffer pH 7.4 in a final volume of 80 μL. The reaction mixture was incubated at 37° C. for 2-5 min (300 rpm). Enzyme was inactivated by adding 80 μL of cold methanol in ice-bath and heating for 5 min at 100° C. After centrifugation at 9000×g for 5 min, samples were half-diluted with water and the NMP production was analysed by HPLC to quantitatively measure the reaction products as described below in the analytical methods. All determinations were carried out in triplicate assuming Michaelis-Menten conditions, and the maximum error was below 5%. In such conditions, one international activity unit (IU) was defined as the amount of enzyme producing 1 μmol/min of UMP under the assay conditions.
Substrate specificity studies Enzymatic synthesis of the different pyrimidine nucleoside monophosphate (NMP) derivatives was carried out by incubating 0.5 μg of pure His-tag enzyme with 1 mM PRPP, 1 mM pyrimidine base and 5 mM MgCl2 in 50 mM PBS buffer pH 7.4 (1.6-3.2% v/v DSMO). The experiments were performed according to the standard assay. Subsequently, the reaction mixture was processed as described above and the NMP production was analyzed by HPLC.
Analytical methods: The production of NMPs was quantitatively measured with an ACE EXCEL 5 μm CN-ES 250×4.6 mm equilibrated with 100% trimethyl ammonium acetate at a flow rate of 0.8 mL/min. Retention times for the reference bases and NMPs (hereafter abbreviated according to the recommendations of the IUPAC-IUB Commission on Biochemical Nomenclature) were as follows: uracil (Ura), 4.7 min; 5-azido uracil (5-AUra). […]
Following these exciting observations, a more quantitative approach to examined for differences between enzyme mutants and their enzyme kinetics with the analogs. […] Each purified enzyme was incubated with the different substrates and phosphoribosyltransferase activity was measured (FIG. 9A).

[3] = tested on: (−)TgUPRT HEK cells; test: Background incorporation of uracil analogs into RNA, streptavidin-HRP dot blot; format: cell-based; settings: 1 mM, mimics in vivo applications, FIG. 4
Procedure: (§1) Transfection, labeling of cellular RNA and RNA isolation: After 48h seeding, HEK293 cells were transfected with 2.5 μg of TgUPRT WT or mutant plasmids (pKN-CMV-TgUPRT-WT or -Mutt to Mut17) per 5 cm plate using JetPrime Transfection reagent (Polyplus Transfection, France). At 40h post-transfection, cells were incubated with a final concentration of 200 μM at <1% DMSO from 400 mM stock of uracil analogs (5EU, 5VU, 5AU) or 200 mM SAMU stock for 5 h. For time course study, HEK cells were treated with 200 μM uracil analogs for 0 h, 0.5, 1, 3, 5, 12 and 24 hours. For titrating uracil analog concentration experiments, HEK cells were treated with 0 (DMSO), 50, 100, 200, 500 μM or 1 mM uracil analog for 5h. Treated HEK cells were subjected to total RNA extraction using 1 mL Trizol Reagent (Invitrogen) following the manufacturer instructions.
(§2) Biotinylation via CuAAC and IEDDA: Cu-mediated Azide-Alkyne cycloaddition (CuAAC) click reactions were performed in 50 μL reaction at 22° C. on a shaker for 30 min with click reaction cocktail containing 15 μg of total RNA, 1 mM biotin alkyne or biotin azide, fresh 4.6 mM THPTA to a final concentration of 1 mM, and fresh 10.6 mM sodium ascorbate (NaAsc) at final concentration of 1.77 mM, and 12 mM CuSO4 at final concentration of 200 μM in biotinylation reaction buffer (10 mM TrisHCI, 1 mM EDTA, pH7.4). The biotinylated RNA was purified using RNA clean & Concentrator-5 kit (Zymo Research, Cat #R1013) according to the manufacturer instructions and eluted in 21 μL of nuclease free water.
(§3) Inverse electron demand [4+2] Diels-Alder cycloaddition (IEDDA) click reactions were performed in 50 μL at 37° C. or 22° C. (RT) for 3h on mixer at 500 rpm containing 10-15 μg of total RNA, 1 mM final concentration of biotin-benzyl tetrazine (Sigma Aldrich, Cat #793329-5MG) in nuclease free water. Clicked total RNA was purified using RNA clean & Concentrator-5 kit (Zymo Research, Cat #R1013) according to the manufacturer instructions, and RNA was eluted in 21 μL of nuclease free water.
HRP-streptavidin dot blot analysis: All gel reagents were from Bio-Rad. For dot blot analysis, 2 μg of clicked total RNA was applied onto Hybond-N+ membrane (GE Healthcare) as individual dots and UV-crosslinked (254 nm) to a membrane (Stratalinker UV crosslinker). Membranes were blocked in blocking buffer (0.12 M NaCl, 0.016 M Na2HPO4, 0.008 M NaH2PO4, 0.17 M SDS) and followed by incubation with high sensitivity streptavidin-HRP (Fisher Scientific, Cat #: P121130) at 1:5000 dilution in blocking buffer for 5 minutes. The membrane was washed twice in a Wash A buffer (1:10 dilution of blocking buffer) and twice in Wash B buffer (Tris-saline buffer). […]

[4] = target: T2, wild-type (WT) TgUPRT in HEK cells (Toxoplasma gondii, UniProt Q26998); test: In-cell RNA incorporation by wild-type TgUPRT, streptavidin dot blot; format: cell-based; settings: wild-type TgUPRT active site
T2 construct: 6xHis; expressed in transfected cells; host or cells: HEK293 (HEK293T)
T2 sequence (Q26998 whole entry): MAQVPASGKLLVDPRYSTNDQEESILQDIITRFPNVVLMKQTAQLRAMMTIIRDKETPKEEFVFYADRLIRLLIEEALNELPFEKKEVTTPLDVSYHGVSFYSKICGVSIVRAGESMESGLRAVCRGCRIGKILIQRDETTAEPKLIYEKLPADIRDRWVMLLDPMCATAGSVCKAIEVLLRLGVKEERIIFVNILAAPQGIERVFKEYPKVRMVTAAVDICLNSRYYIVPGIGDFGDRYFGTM
Procedure: as §1, §2, §3
HRP-streptavidin dot blot analysis: All gel reagents were from Bio-Rad. […]

[5] = tested on: UPRT(+)-microglia brains; test: In vivo labeling of brain RNA in mice transplanted with UPRT-expressing human microglia, biotin dot blot; settings: IP close to 150 mg/kg, 24-48 hours, FIG. 14
Procedure: 5-vinyl-uracil (Alfa Aesar #4437903) was prepared in sterile conditions at 4 times the concentration in 100% DMSO, then diluted to 25% DMSO by adding corn oil to a final concentration of 500 mM. The mixture was heated to 37° C. for […] until homogenous. Mice are weighed before intraperitoneal injection (IP) injection to ensure close to 150 mg/kg are injected per treatment. For an (˜20 g) adult mouse typically 60-70 μl are IP injected per treatment. Mice are monitored for signs of distress. After 24-48 hours of treatment, mice were sacrificed and brains were immediately placed into 2 ml of RNAlater and left in 4° C. for 3-5 days. After removing brains from RNAlater, they were homogenized with RNAse-free 1.4 mm steel beads (Next Advance SSB14B-RNA) for 60 seconds and centrifuged at 4° C. for 5 min, maximum speed to separate the fatty layer. The bottom layer is collected, homogenized with 200 ul chloroform and centrifuged for 20 minutes, at 4° C. The aqueous layer is collected and 500 ul isopropanol added. After centrifugation for 30 minutes 4° C., the RNA pellet is washed in 70% Ethanol twice. After removing ethanol, the RNA pellet is resuspended in nuclease-free water and nanodrop to determine the concentration. From each sample, 15 μg of RNA was subjected in tetrazine-biotin ligation at 37° C., 500 RPM for 3 hours. The biotinylated RNA was purified with RNA Zymo Clean and Concentrator #5 and eluted with nuclease-free water. 2 μg of purified RNA was spotted onto a N+ Hybond membrane and UV-crosslinked at 254 nm (120,000 uJ). Membrane is blocked in blocking buffer (0.12 M NaCl, 0.016 M Na2HPO4, 0.008 M NaH2PO4, 0.17 M SDS) and followed by incubation with high sensitivity streptavidin-HRP (Fisher Scientific, Cat #: P121130) at 1:5000 dilution in blocking buffer for 5 minutes. The membrane was washed twice in a Wash A buffer (1:10 dilution of blocking buffer) and twice in Wash B buffer (Tris-saline buffer). It was then incubated for 1-5 min. in ECL Chemiluminescent Substrate (Fisher Scientific, Cat #: P132106) and imaged on a ChemiDoc MP imaging system (Bio-Rad). […]

O=c1[nH]c(=S)ccn1[C@@H]1O[C@H](CO)[C@@H](O)[C@H]1O [4-thiouridine, reference compound]
incorporation into cellular RNA with UMPS overexpression [1]: incorporation

O=c1cc[nH]c(=O)[nH]1 [Uracil, uracil, reference compound]
reactivity with the mutants (phosphoribosyltransferase activity) [2]: reactivity of uracil for all five mutants was observed

[N-]=[N+]=Nc1c[nH]c(=O)[nH]c1=O [compound 4, 5-Azidopyrimidine-2,4(1H,3H)-dione]
incorporation into RNA at higher concentration [3]: higher incorporation

O=c1[nH]ccc(=S)[nH]1 [4-thiouracil, reference compound]
incorporation into cellular RNA with UMPS overexpression [1]: higher amount | TgUPRT-dependent incorporation into cellular RNA [4]: has the ability to be incorporated into cellular RNA

C=Cc1cn([C@@H]2O[C@H](CO)[C@@H](O)[C@H]2O)c(=O)[nH]c1=O [5-vinyluridine, reference compound]
incorporation into brain RNA, UPRT(+)-microglia transplanted [5]: incorporated into brain RNA; also recorded: incorporation
